For eleven molecules, TGI and GI50 results are on record in PubChem BioAssay (NCI).

What all share (assay): DTP human tumour cell line panel, 48 h
The test system of assay [1] is HT29 colon.
For assay [2], the system named is OVCAR-8 ovarian.
For assay [3], the system named is A549 NSCLC.
The test system of assay [4] is HL-60(TB) leukemia.
Assay [5] concerns NCI-H460 lung.
Assay [6] has as its system RPMI-8226 leukemia.
The test system of assay [7] is NCI-H226 lung.
The test system of assay [8] is SF-539 CNS.
For assay [9], the system named is SK-MEL-28 melanoma.
The test system of assay [10] is UACC-62 melanoma.

Structures are written as SMILES. Several values for one entry are separate records, joined by “and”; a condition that tells them apart may be missing. Equal entries are not always repeated.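 96-well plates; 48 h exposure; 5 concentrations. Endpoints by linear interpolation between flanking doses. Not reached: highest tested concentration assigned. GI50 = concentration required for 50% inhibition of growth. TGI marks complete inhibition of growth.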

Take `CCCCCCCCCCCCCCCCNCCCN(C)CCCN`: the TGI worked out at 35.8 µM in assay [1]; 38.5 µM in [2]; 32.1 µM in assay [3]; 42.4 µM in [4]; 34.1 µM in [5]; 46.2 µM in assay [6]. The concentration for total growth inhibition (TGI) in assay [7] worked out at 39.3 µM; in assay [8], 34.5 µM; in assay [9], 26.6 µM; in [10], 33.2 µM.
Take `COc1cc(NS(C)(=O)=O)ccc1Nc1c2ccccc2nc2ccccc12`: the GI50 was 1.37 µM and 0.888 µM and 0.991 µM in assay [1]; 1.33 µM and 0.904 µM and 1.03 µM in assay [2]; 0.198 µM and 0.0635 µM and 0.0637 µM in [3]; 0.298 µM and 0.18 µM and < 0.0379 µM in assay [4]; 0.0587 µM and 0.0338 µM and 0.0425 µM in assay [5]; 4.07 µM and 2 µM in assay [6]. For the same molecule, the GI50 was 0.256 µM and 0.26 µM and 0.22 µM in [7]; 0.531 µM and 0.36 µM and 0.41 µM in [8]; 0.491 µM and 0.951 µM and 0.705 µM in [10]. Moreover, in assay [8], the TGI was 2.27 µM [middle of 7 runs].
Consider `CCOc1ccc2c(c1)[n+]([O-])c(-c1ccc(Br)cc1)c(N)[n+]2[O-]`, for which the TGI in assay [1], in assay [2], in assay [3], in assay [4], in assay [5] and in [6] was > 100 µM in each case. For the same molecule, the concentration for total growth inhibition (TGI) in [7], in [8], in [9] and in [10] was > 100 µM throughout.
Turning to `Cc1cc(Nc2nc(-c3cccnc3)nc3ccccc23)n[nH]1`, the GI50 in assay [1] is 1.57 µM; in assay [2], 9.55 µM; in assay [3], 0.672 µM; in [4], 3.27 µM; in assay [5] it was 1.84 µM; in assay [6], > 38.5 µM. For the same molecule, the GI50 in [7] is 1.39 µM; in assay [8], 1.82 µM; in assay [9] it was 10.1 µM; in assay [10] it was 0.943 µM. In addition, the TGI in assay [1] is 11.8 µM; in [2], > 100 µM; in assay [3], > 100 µM; in assay [4], 49 µM; in [5], > 100 µM; in assay [6] it was > 95.1 µM. The concentration for total growth inhibition (TGI) in [7] is > 24.2 µM; in assay [8] it was 7.99 µM; in assay [9], > 100 µM; in [10], 35.6 µM.
For `CN(C)c1ccc(/C=C/c2ccc(/C=C/c3ccc(N(C)C)cc3)cc2)cc1`, the TGI in assay [1], in [2], in [3], in assay [4], in assay [5] and in assay [6] was > 100 µM throughout. Besides, the TGI in assay [7], in assay [8], in assay [9] and in [10] was > 100 µM each time.
As to `COC(=O)C1OC2(CCCC3CC32)O[C@H]1C(=O)OC` (some centres not stated), the TGI in assay [1], in assay [2], in assay [3], in [4], in assay [5] and in assay [6] was > 100 µM throughout. Moreover, the concentration for total growth inhibition (TGI) in [7], in assay [8], in assay [9] and in assay [10] was > 100 µM in each case.
As for `C[N+](C)(C)CC1CCC/C1=N/O` (configuration not stated), the concentration for total growth inhibition (TGI) is > 100 µM in [1]; 4.34 µM in assay [2]; > 100 µM in assay [3]; 35.3 µM in [4]; > 100 µM in assay [5]; 47 µM in assay [6]. For the same molecule, the TGI in assay [7], in [8], in assay [9] and in [10] was > 100 µM throughout.
On to `COc1ccc(/C=c2\sc3n(c2=O)C2C(NN=3)N(C)C(=O)N2C)cc1` (configuration not stated), for which the GI50 was 0.56 µM in assay [1]; 1.75 µM in assay [2]; 1.35 µM in [3]; 0.501 µM in [4]; 0.933 µM in [5]; 0.455 µM in assay [6]. The GI50 in [7] was 1.18 µM; in assay [8], 0.78 µM; in [9], 2.27 µM; in assay [10], 0.578 µM. For the same molecule, the total growth inhibition concentration (TGI) in assay [1] was > 100 µM; in [2], > 100 µM; in assay [3] it was > 100 µM; in assay [4], 1.96 µM; in assay [5] it was > 100 µM; in assay [6], > 19.6 µM. Also, the total growth inhibition concentration (TGI) is > 100 µM in assay [7], 6.04 µM in [8], > 100 µM in assay [9] and > 100 µM in assay [10].
As to `COC1=C(C)C(=O)c2c(c(CCCl)c3n2CCC3O)C1=O` (configuration not stated), the GI50 in assay [1] is 0.197 µM; in assay [2] it was 1.78 µM; in assay [4] it was 3.34 µM; in [5], 0.178 µM; in [6] it was 3.08 µM; in assay [7], 0.764 µM. In addition, the concentration for 50% growth inhibition (GI50) in assay [8] is 0.302 µM; in [9], 0.811 µM; in [10], 0.319 µM. For the same molecule, the TGI in assay [1] amounted to 0.67 µM; in assay [2], 23.9 µM; in assay [4], 30.4 µM; in [5] it was 2.79 µM; in [6], 21.8 µM; in assay [7] it was 5.5 µM. Besides, the concentration for total growth inhibition (TGI) in [8] worked out at 1.16 µM; in assay [9], 3.85 µM; in [10], 1.28 µM.
For `S=c1nc(COc2ccc(Cl)cc2Cl)[nH][nH]1`, the total growth inhibition concentration (TGI) in assay [1] was > 100 µM; in [2], > 100 µM; in assay [3], > 100 µM; in [4] it was 88.8 µM; in assay [5] it was > 100 µM; in assay [6] it was > 100 µM. For the same molecule, the concentration for total growth inhibition (TGI) in assay [7], in [8], in [9] and in assay [10] was > 100 µM throughout.
On to `CS(=O)(=O)NNS(=O)(=O)c1ccccc1`, for which the TGI in assay [1], in assay [2], in [3], in [4], in [5] and in assay [6] was > 100 µM throughout. The TGI in assay [7], in assay [8] and in assay [10] was > 100 µM throughout.
